# Assay results taken from patent US7709482B2, “Polycyclic heteroaryl substituted triazoles useful as Axl inhibitors” (Rigel Pharmaceuticals, Inc., priority 2006, dated 2010).
# Molecular target: T1, Axl (Homo sapiens, UniProt P30530)
# T1 construct: endogenous in cells; host or cells: HeLa cells
# T1 sequence (P30530 26-894): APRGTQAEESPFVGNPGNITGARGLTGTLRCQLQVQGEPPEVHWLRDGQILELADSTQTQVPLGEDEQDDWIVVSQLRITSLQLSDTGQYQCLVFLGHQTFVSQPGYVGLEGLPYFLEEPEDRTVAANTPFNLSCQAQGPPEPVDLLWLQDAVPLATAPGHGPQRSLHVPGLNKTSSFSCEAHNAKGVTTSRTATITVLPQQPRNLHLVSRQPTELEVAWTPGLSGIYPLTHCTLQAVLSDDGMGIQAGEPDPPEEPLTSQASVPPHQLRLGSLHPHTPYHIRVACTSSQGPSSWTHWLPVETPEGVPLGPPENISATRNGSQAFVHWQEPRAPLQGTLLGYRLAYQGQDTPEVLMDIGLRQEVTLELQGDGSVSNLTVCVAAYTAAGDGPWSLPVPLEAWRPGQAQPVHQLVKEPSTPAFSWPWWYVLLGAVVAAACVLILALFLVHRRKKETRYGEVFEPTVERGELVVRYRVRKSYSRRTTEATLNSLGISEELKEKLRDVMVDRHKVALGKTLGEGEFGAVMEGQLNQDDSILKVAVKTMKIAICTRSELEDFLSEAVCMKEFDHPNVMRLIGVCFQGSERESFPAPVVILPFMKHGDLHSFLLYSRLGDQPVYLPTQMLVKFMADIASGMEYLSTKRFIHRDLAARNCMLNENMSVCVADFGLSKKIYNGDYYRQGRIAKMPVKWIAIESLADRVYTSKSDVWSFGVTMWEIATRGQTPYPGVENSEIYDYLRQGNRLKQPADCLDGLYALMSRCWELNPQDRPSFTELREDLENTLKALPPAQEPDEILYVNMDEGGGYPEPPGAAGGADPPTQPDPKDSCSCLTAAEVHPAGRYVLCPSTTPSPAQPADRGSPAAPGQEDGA
# Experiment: Phospho-Akt In-Cell Western Assay (inhibition of Axl activity after Axl-antibody cross-linking)
# Format: cell-based
# Conditions: Hela cells, phospho-Akt chemiluminescence normalized to relative cell number; compounds of formula (Ia), Table 1; read-out: IC50
# Method in brief: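 HeLa cells on poly-L-lysine, starved 24 h in 0.5% FCS DMEM with Axl/Fc 500 ng/mL, pre-treated with compound 1 h at 37 °C, then stimulated 5 min by anti-Axl/anti-mouse antibody cross-linking. Fixed cells probed for phospho-Akt with HRP secondary and chemiluminescent detection.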
row,Structure (SMILES),IC50 [µM]
1,"Nc1nc(Nc2ccc(OCCN3CCCC3)c(F)c2)nn1-c1cc2c(nn1)-c1ccccc1CCC2 [Compound 48, 1-(6,7-dihydro-5H-benzo[6,7]cyclohepta[1,2-c]pyridazin-3-yl)-N^3-(3-fluoro-4-(2-(pyrrolidin-1-yl)ethoxy)phenyl)-1H-1,2,4-triazole-3,5-diamine]",1 to 10
2,"COc1ccc2c(c1)CCCc1cc(-n3nc(Nc4ccc(OCCN5CCCC5)c(F)c4)nc3N)nnc1-2 [Compound 56, 1-(6,7-dihydro-5H-9-methoxybenzo[6,7]cyclo-hepta[1,2-c]pyridazin-3-yl)-N^3-(3-fluoro-4-(2-(pyrrolidin-1-yl)ethoxy)phenyl)-1H-1,2,4-triazole-3,5-diamine]",1 to 10
3,"Nc1nc(Nc2ccc(N3CCCC(N4CCCC4)CC3)c(F)c2)nn1-c1cc2c(nn1)-c1ccccc1CCC2 (centres unmarked) [Compound 77, 1-(6,7-dihydro-5H-benzo[6,7]cyclohepta[1,2-c]pyridazin-3-yl)-N^3-(3-fluoro-4-(4-pyrrolidin-1-yl-azepan-1-yl)phenyl)-1H-1,2,4-triazole-3,5-diamine]",< 1

# The next lines start with the values.
row,IC50 [µM],Structure (SMILES)
1,< 1,"CN1CCC(C2CCN(c3ccc(Nc4nc(N)n(-c5cc6c(nn5)-c5ccccc5CCC6)n4)cc3F)CC2)CC1 [Compound 70, 1-(6,7-dihydro-5H-benzo[6,7]cyclohepta[1,2-c]pyridazin-3-yl)-N^3-(3-fluoro-4-(4-N-methylpiperidin-4-yl-piperidin-1-yl)phenyl)-1H-1,2,4-triazole-3,5-diamine]"
2,1 to 10,"CN1CCN(c2ccc(Nc3nc(N)n(-c4ncc5c(n4)-c4ccccc4CCC5)n3)cc2)CC1 [Compound 40, 1-(6,7-dihydro-5H-benzo[6,7]cyclohepta[1,2-d]pyrimidin-2-yl)-N^3-(4-(N-methylpiperazin-1-yl)phenyl)-1H-1,2,4-triazole-3,5-diamine]"
3,1 to 10,"Nc1nc(Nc2ccc(N3CCC(N4CCCC4)CC3)nc2)nn1-c1cc2c(nn1)-c1ccccc1CCC2 [Compound 29, 1-(6,7-dihydro-5H-benzo[6,7]cyclohepta[1,2-c]pyridazin-3-yl)-N^3-(6-(4-(pyrrolidin-1-yl)piperidin-1-yl)pyridine-3-yl)-1H-1,2,4-triazole-3,5-diamine]"

# Same assay, conditions: Hela cells, phospho-Akt chemiluminescence normalized to relative cell number; compounds of formula (Ib), Table 2; read-out: IC50
row,IC50 [µM],Structure (SMILES)
1,1 to 10,"Nc1nc(Nc2ccc(CN3CCN(C4CCCC4)CC3)cc2)n(-c2cc3c(nn2)-c2ccccc2CCC3)n1 [Compound 166, 1-(6,7-dihydro-5H-benzo[6,7]cyclohepta[1,2-c]pyridazin-3-yl)-N^5-(4-((4-cyclopentylpiperazinyl)methyl)phenyl)-1H-1,2,4-triazole-3,5-diamine]"

# Same assay, conditions: inhibition of Axl activity; Table 1, compounds of formula (Ia); read-out: IC50
row,IC50 [µM],Structure (SMILES)
1,< 1,"Nc1nc(Nc2ccc(N3CCN4CCCCC4C3)c(F)c2)nn1-c1cc2c(nn1)-c1ccccc1SCC2 (centres unmarked) [Compound 129, 1-(6,7-dihydro-5H-benzo[2,3]thiepino[4,5-c]pyridazin-3-yl)-N^3-(3-fluoro-4-(octahydro-1H-pyrido[1,2-a]pyrazin-2-yl)phenyl)-1H-1,2,4-triazole-3,5-diamine]"
2,< 1,"Nc1nc(Nc2ccc3c(c2)CCC(N2CCC2)CC3)nn1-c1cc2c(nn1)-c1ccccc1CCC2 (centres unmarked) [Compound 151, 1-(6,7-dihydro-5H-benzo[6,7]cyclohepta[1,2-c]pyridazin-3-yl)-N^3-((7-azetidin-1-yl)-6,7,8,9-tetrahydro-5H-benzo[7]annulene-2-yl)-1H-1,2,4-triazole-3,5-diamine]"
3,1 to 10,"CN1CCN(c2ccc(Nc3nc(N)n(-c4cc(-c5ccccc5)c5c(n4)-c4ccccc4CCC5)n3)cc2)CC1 [Compound 193, 1-(4-phenyl-6,7-dihydro-5H-benzo[6,7]cyclohepta[1,2-b]pyridin-2-yl)-N^3-(4-(4-methylpiperazin-1-yl)phenyl)-1H-1,2,4-triazole-3,5-diamine]"
4,< 1,"CCN(CC)C1CCc2ccc(Nc3nc(N)n(-c4cc5c(nn4)-c4ccccc4CCC5)n3)cc2CC1 (centres unmarked) [Compound 185, 1-(6,7-dihydro-5H-benzo[6,7]cyclohepta[1,2-c]pyridazin-3-yl)-N^3-(7-diethylamino-6,7,8,9-tetrahydro-5H-benzo[7]annulene-2-yl)-1H-1,2,4-triazole-3,5-diamine]"
